Results as given in ChEMBL document CHEMBL3407349, “The discovery of Polo-like kinase 4 inhibitors: identification of (1R,2S).2-(3-((E).4-(((cis).2,6-dimethylmorpholino)methyl)styryl). 1H.indazol-6-yl)-5'-methoxyspiro[cyclopropane-1,3'-indolin]-2'-one (CFI-400945) as a potent, orally active antitumor agent” (J Med Chem, 2015).

Key:
[1] = Half life in Sprague-Dawley rat at 1 mg/kg, iv; assay type: ADME, organism-based; set-up: dose 1 mg/kg, route intravenous; settings: in vivo
SW-620 = assay: Growth inhibition of human SW620 cells after 5 days by SRB assay; assay type: functional; settings: SW-620, 120 h
[2] = AUC(infinity) in beagle dog at 5 mg/kg, po; assay type: ADME, organism-based, Canis lupus familiaris; set-up: time infinity, dose 5 mg/kg, route oral; settings: plasma
[3] = Oral bioavailability in Sprague-Dawley rat at 5 mg/kg; assay type: ADME, organism-based; settings: in vivo
A549 [4] = assay: Antitumor activity against human A549 cells xenografted in CB-17 SCID mouse assessed as tumor growth inhibition at 3 mg/kg, po qd administered for 21 days; assay type: functional; settings: A549, 504 h, read-out: TGI
Cytochrome P450 2C19 = Cytochrome P450 2C19 (Homo sapiens, UniProt P33261); assay: Inhibition of CYP2C19 (unknown origin) by fluorescence assay
[5] = Half life in mouse liver microsomes; settings: liver microsomes
[6] = Half life in dog liver microsomes; settings: liver microsomes
A549 [7] = assay: Antitumor activity against human A549 cells xenografted in CB-17 SCID mouse assessed as tumor growth inhibition at 9.4 mg/kg, po qd administered for 21 days; assay type: functional; settings: A549, 504 h, read-out: TGI
[8] = AUC(infinity) in Sprague-Dawley rat at 1 mg/kg, iv; assay type: ADME, organism-based; set-up: time infinity, dose 1 mg/kg, route intravenous; settings: plasma
[9] = Antitumor activity against human HCT116 cells xenografted in athymic CD-1 nude mouse assessed as tumor growth inhibition at MTD, po qd administered 1-on/3-off schedule up to day 21; assay type: functional, HCT-116
[10] = Antitumor activity against human SW620 cells xenografted in CB-17 SCID mouse assessed as tumor growth inhibition at 3 mg/kg, po qd administered for 21 days; assay type: functional; settings: SW-620, 504 h, read-out: TGI
MDA-MB-231 = assay: Growth inhibition of human MDA-MB-231 cells after 5 days by SRB assay; assay type: functional; settings: Homo sapiens, MDA-MB-231, 120 h
Mus musculus [11] = assay: Toxicity in CB-17 SCID mouse xenografted with human MDA-MB-468 cells assessed as loss in body weight at 3 to 9.4 mg/kg, po qd administered for 21 days relative to control; assay type: organism-based; set-up: dose 3-9.4 mg/kg, route oral; settings: in vivo, 504 h
[12] = AUC in athymic CD1 nude mouse at 25 mg/kg, po by LC/MS/MS analysis; assay type: ADME, organism-based; set-up: dose 25 mg/kg, route oral; settings: plasma
[13] = Growth inhibition of human BT20 cells after 5 days by SRB assay; assay type: functional; settings: BT-20, 120 h
HCC1954 = assay: Growth inhibition of human HCC1954 cells after 5 days by SRB assay; assay type: functional; settings: Homo sapiens, HCC1954, 120 h
[14] = Half life in human liver microsomes; settings: liver microsomes
[15] = Antitumor activity against human SW620 cells xenografted in CB-17 SCID mouse assessed as tumor growth inhibition at 9.4 mg/kg, po qd administered for 21 days; assay type: functional; settings: SW-620, 504 h, read-out: TGI
Cytochrome P450 2D6 = Cytochrome P450 2D6 (Homo sapiens, UniProt P10635); assay: Inhibition of CYP2D6 (unknown origin) by fluorescence assay; assay type: ADME
[16] = AUC(infinity) in Sprague-Dawley rat at 5 mg/kg, po; assay type: ADME, organism-based; set-up: dose 5 mg/kg, route oral, time infinity; settings: plasma
[17] = Toxicity in po dosed athymic CD-1 nude mouse xenografted with human HCT116 cells administered qd 1-on/3-off schedule up to day 21; assay type: organism-based, HCT-116; settings: CD-1 athymic nude, in vivo
MDA-MB-468 [18] = assay: Antitumor activity against human MDA-MB-468 cells xenografted in CB-17 SCID mouse assessed as tumor growth inhibition at 3 mg/kg, po qd administered for 21 days; assay type: functional; settings: MDA-MB-468, 504 h, read-out: TGI
MDA-MB-468 [19] = assay: Growth inhibition of human MDA-MB-468 cells after 5 days by SRB assay; assay type: functional; settings: Homo sapiens, MDA-MB-468, 120 h
Angiopoietin-1 receptor [20] = target: T1, Angiopoietin-1 receptor (Homo sapiens, UniProt Q02763); assay: Inhibition of TIE2 (unknown origin) by cell-based assay
[21] = Cmax in athymic CD1 nude mouse at 25 mg/kg, po by LC/MS/MS analysis; assay type: ADME, organism-based; set-up: dose 25 mg/kg, route oral; settings: in vivo
[22] = Growth inhibition of human HCT116 cells after 5 days by SRB assay; assay type: functional; settings: HCT-116, 120 h
Canis familiaris = assay: Clearance in beagle dog at 1 mg/kg, iv; assay type: ADME, organism-based, Canis lupus familiaris; set-up: dose 1 mg/kg, route intravenous; settings: in vivo
MDA-MB-468 [23] = assay: Antitumor activity against human MDA-MB-468 cells xenografted in CB-17 SCID mouse assessed as tumor growth inhibition at 9.4 mg/kg, po qd administered for 21 days; assay type: functional; settings: MDA-MB-468, 504 h, read-out: TGI
[24] = Growth inhibition of human OVCAR3 cells after 5 days by SRB assay; assay type: functional; settings: OVCAR-3, 120 h
[25] = AUC(infinity) in beagle dog at 1 mg/kg, iv; assay type: ADME, organism-based, Canis lupus familiaris; set-up: time infinity, dose 1 mg/kg, route intravenous; settings: plasma
[26] = Growth inhibition of human CAL51 cells after 5 days by SRB assay; assay type: functional; settings: CAL-51, 120 h
[27] = Half life in beagle dog at 1 mg/kg, iv; assay type: ADME, organism-based, Canis lupus familiaris; set-up: dose 1 mg/kg, route intravenous; settings: in vivo
[28] = Growth inhibition of human SKBR3 cells after 5 days by SRB assay; assay type: functional; settings: SK-BR-3, 120 h
[29] = Half life in rat liver microsomes; settings: liver microsomes
[30] = Antitumor activity against human HCT116 cells xenografted in athymic CD-1 nude mouse assessed as tumor growth inhibition at MTD, po qd administered 1-on/3-off schedule up to day 21 measured on day 35; assay type: functional, HCT-116
A549 [31] = assay: Growth inhibition of human A549 cells after 5 days by SRB assay; assay type: functional; settings: A549, 120 h
Cytochrome P450 2C9 = Cytochrome P450 2C9 (Homo sapiens, UniProt P11712); assay: Inhibition of CYP2C9 (unknown origin) by fluorescence assay
Mus musculus [32] = assay: Toxicity in CB-17 SCID mouse xenografted with human MDA-MB-468 cells assessed as mortality at 3 to 9.4 mg/kg, po qd administered for 21 days; assay type: organism-based; set-up: dose 3-9.4 mg/kg, route oral; settings: in vivo, 504 h
[33] = Growth inhibition of human COLO205 cells after 5 days by SRB assay; assay type: functional; settings: COLO 205, 120 h
Cytochrome P450 1A2 = target: T2, Cytochrome P450 1A2 (Homo sapiens, UniProt P05177); assay: Inhibition of CYP1A2 (unknown origin) by fluorescence assay; assay type: ADME
T2 sequence (P05177 whole entry): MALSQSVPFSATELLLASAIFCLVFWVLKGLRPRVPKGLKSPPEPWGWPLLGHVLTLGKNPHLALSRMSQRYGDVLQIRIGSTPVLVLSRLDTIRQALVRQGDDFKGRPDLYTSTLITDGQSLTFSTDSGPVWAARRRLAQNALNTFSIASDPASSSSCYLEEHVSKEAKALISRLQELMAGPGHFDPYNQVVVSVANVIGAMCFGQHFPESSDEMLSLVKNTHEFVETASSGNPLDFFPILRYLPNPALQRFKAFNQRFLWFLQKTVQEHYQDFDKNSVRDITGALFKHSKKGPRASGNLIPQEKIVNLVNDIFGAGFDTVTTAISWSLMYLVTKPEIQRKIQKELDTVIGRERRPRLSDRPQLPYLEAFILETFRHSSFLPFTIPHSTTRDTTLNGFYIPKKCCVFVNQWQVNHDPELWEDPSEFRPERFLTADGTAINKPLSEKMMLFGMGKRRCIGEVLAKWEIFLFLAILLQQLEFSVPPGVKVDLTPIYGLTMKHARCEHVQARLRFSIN

Rattus norvegicus = assay: Clearance in Sprague-Dawley rat at 1 mg/kg, iv; assay type: ADME, organism-based; set-up: dose 1 mg/kg, route intravenous; settings: in vivo
[34] = Oral bioavailability in beagle dog at 5 mg/kg; assay type: ADME, organism-based, Canis lupus familiaris; settings: in vivo
Angiopoietin-1 receptor [35] = target: T1, Angiopoietin-1 receptor; assay: Inhibition of TIE2 (unknown origin) by FRET analysis
MCF7 = assay: Growth inhibition of human MCF7 cells after 5 days by SRB assay; assay type: functional; settings: Homo sapiens, MCF7, 120 h
[36] = Growth inhibition of human HMEC cells after 5 days by SRB assay; assay type: cell-based; settings: HMEC cells

T1 sequence (Q02763 whole entry): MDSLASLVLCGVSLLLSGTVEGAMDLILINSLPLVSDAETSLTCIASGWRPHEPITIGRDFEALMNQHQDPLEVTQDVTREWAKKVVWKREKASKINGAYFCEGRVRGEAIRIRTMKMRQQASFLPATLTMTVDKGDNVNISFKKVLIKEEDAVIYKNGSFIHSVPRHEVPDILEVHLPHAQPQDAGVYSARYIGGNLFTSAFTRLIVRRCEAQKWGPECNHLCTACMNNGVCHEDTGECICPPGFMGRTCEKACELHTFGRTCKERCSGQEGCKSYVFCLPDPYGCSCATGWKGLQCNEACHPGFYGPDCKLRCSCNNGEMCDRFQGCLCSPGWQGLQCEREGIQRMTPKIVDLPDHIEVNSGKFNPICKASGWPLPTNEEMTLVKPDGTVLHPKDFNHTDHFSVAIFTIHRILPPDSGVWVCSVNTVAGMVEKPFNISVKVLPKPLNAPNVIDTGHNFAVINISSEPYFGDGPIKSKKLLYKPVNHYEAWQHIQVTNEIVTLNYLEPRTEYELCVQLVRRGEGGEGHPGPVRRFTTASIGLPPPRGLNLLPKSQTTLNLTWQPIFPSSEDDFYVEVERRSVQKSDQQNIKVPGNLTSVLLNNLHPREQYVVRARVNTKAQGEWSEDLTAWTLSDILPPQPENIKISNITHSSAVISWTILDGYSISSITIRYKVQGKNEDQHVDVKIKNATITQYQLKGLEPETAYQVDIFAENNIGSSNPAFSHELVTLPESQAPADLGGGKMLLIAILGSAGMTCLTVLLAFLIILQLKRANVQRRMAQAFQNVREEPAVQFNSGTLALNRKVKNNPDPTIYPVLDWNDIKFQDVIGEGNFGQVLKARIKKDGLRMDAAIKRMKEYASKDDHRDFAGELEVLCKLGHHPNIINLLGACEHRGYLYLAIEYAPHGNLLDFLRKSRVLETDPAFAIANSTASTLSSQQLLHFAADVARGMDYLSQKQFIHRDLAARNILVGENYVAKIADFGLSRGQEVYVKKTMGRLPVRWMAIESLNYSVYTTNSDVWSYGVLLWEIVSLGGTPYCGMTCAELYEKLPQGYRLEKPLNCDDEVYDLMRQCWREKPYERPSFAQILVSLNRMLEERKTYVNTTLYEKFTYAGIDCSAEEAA
Chain of Cytochrome P450 2C9 (P11712 whole entry): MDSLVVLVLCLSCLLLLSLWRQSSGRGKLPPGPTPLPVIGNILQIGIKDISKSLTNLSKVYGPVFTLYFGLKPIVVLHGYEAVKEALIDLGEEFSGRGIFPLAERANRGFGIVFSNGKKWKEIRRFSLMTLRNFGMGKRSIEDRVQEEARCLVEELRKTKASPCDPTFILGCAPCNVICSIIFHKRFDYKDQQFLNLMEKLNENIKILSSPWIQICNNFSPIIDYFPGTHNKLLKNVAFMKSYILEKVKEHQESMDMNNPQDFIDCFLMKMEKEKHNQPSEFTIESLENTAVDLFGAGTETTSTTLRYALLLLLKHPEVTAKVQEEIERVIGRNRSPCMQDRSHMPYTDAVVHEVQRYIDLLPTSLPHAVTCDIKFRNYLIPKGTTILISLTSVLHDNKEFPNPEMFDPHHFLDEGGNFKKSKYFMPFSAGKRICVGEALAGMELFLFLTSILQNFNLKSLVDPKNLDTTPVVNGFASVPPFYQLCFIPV
Chain of Cytochrome P450 2D6 (P10635 whole entry): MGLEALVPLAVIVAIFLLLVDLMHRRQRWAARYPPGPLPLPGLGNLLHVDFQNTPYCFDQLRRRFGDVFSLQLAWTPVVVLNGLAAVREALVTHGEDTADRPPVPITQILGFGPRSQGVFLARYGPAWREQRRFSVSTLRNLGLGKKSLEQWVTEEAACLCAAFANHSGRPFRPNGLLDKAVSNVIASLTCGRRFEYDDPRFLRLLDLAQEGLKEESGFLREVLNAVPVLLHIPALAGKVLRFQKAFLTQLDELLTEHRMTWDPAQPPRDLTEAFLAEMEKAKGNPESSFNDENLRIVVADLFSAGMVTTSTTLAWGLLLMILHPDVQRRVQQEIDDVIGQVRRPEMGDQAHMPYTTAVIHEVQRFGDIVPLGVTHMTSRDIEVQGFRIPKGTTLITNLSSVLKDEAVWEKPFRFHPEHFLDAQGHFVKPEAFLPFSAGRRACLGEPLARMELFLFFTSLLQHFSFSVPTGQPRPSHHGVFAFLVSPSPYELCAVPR
Chain of Cytochrome P450 2C19 (P33261 whole entry): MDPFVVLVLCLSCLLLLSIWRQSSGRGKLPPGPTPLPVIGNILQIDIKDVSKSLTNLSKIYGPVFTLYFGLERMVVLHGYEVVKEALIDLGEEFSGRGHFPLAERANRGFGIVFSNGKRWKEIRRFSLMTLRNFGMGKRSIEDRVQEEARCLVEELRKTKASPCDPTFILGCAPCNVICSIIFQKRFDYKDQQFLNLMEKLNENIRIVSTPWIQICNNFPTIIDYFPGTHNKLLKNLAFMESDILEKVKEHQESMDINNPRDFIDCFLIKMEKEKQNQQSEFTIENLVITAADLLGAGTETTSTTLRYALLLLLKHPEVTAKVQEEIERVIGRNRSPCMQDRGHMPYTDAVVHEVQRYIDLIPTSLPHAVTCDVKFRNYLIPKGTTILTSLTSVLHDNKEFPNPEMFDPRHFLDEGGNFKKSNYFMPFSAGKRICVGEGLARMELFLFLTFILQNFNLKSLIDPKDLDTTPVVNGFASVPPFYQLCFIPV

COc1ccc2c(c1)[C@]1(C[C@H]1c1ccc3c(/C=C/c4ccc(CN5C[C@@H](C)O[C@@H](C)C5)cc4)n[nH]c3c1)C(=O)N2 [OCIFISERTIB]
half-life [1]: 120 min
GI50 (SW-620): 380 nM
AUC(0-inf) [2]: 3460 ng·h/mL
bioavailability [3]: 21%
inhibition in vivo at 3 mg/kg (A549 [4]): 32%
IC50 (Cytochrome P450 2C19): 1400 nM
half-life [5]: 24 min
half-life [6]: 43 min
inhibition in vivo at 9.4 mg/kg (A549 [7]): 70%
AUC(0-inf) [8]: 534 ng·h/mL
TGI [9]: 98%
inhibition in vivo at 3 mg/kg [10]: 7%
GI50 (MDA-MB-231): 8.6 µM
Activity (Mus musculus [11]): > 20%
AUC [12]: 9800 ng·h/mL
GI50 [13]: 58 nM
GI50 (HCC1954): 5 nM
half-life [14]: > 60 min
inhibition in vivo at 9.4 mg/kg [15]: 86%
inhibition (INH) (Cytochrome P450 2D6): Not Active
AUC(0-inf) [16]: 767 ng·h/mL
MTD at 21 days [17]: 39 mg/kg
inhibition in vivo at 3 mg/kg (MDA-MB-468 [18]): 57%
GI50 (MDA-MB-468 [19]): 6 nM
EC50 (Angiopoietin-1 receptor [20]): 117 nM
Cmax [21]: 2200 ng/mL
GI50 [22]: 4 nM
clearance (Canis familiaris): 0.96 L/h/kg
inhibition in vivo at 9.4 mg/kg (MDA-MB-468 [23]): 77%
GI50 [24]: 18 nM
AUC(0-inf) [25]: 1050 ng·h/mL
GI50 [26]: 260 nM
half-life [27]: 126 min
GI50 [28]: 5.3 µM
half-life [29]: 53 min
TGI [30]: 93%
GI50 (A549 [31]): 5 nM
IC50 (Cytochrome P450 2C9): 940 nM
Activity (Mus musculus [32]): Non-toxic
GI50 [33]: 17 nM
inhibition (INH) (Cytochrome P450 1A2): Not Active
clearance (Rattus norvegicus): 1.9 L/h/kg
bioavailability [34]: 66%
IC50 (Angiopoietin-1 receptor [35]): 22 nM
GI50 (MCF7): 8 nM
GI50 at 120 h [36]: 9 µM
